# The source made the active and inactive calls.
# What was measured:
# [1] = biological target: T1, Mannose-6-phosphate isomerase (Homo sapiens, UniProt P34949); assay: inhibitors of human PMI, primary screen, biochemical, fluorescence intensity, coupled assay (AID 1209)
# T1 sequence (P34949 whole entry): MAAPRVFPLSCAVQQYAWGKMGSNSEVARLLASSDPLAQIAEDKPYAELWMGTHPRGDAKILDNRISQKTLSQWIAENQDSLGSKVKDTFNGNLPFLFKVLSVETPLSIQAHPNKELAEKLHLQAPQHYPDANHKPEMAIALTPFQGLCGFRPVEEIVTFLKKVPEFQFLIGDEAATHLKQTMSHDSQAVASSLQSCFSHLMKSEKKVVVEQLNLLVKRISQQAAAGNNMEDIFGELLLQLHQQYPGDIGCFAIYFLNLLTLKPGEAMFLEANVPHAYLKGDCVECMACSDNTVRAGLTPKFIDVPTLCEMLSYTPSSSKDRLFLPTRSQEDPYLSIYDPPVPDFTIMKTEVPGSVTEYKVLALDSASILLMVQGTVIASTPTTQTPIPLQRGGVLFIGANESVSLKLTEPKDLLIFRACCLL
# [2] = biological target: Cytochrome P450 2C19 (Homo sapiens, UniProt P33261); assay: qHTS Assay for Inhibitors and Substrates of Cytochrome P450 2C19. [Related pubchem assays: 410 ]; format: ADME; details: read-out: Potency
# [3] = NIH-3T3 fibroblast cytotoxicity, dose response, cytotoxicity control, cell-based, fluorescence, Alamar Blue, secondary assay (AID 2327); format: functional;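 also: NIH-3T3 mouse fibroblasts cultured with fluconazole at 8 µg/mL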
# [4] = inhibitors of firefly luciferase expression or activity, dose response, H4 neuroglioma cells, luminescence (AID 1990); format: functional, cell-based
# [5] = cells; format: functional, cell-based
# [6] = Luminescence Cell-Based Dose Response HTS to Identify Inhibitors of 5'UTR Stem-Loop Driven Prion Protein mRNA Translation in H4 Neuroglioblastoma Cells. [Related pubchem assays: 1827 (Project Summary), 1813 (Primary HTS)]; format: functional
# [7] = inhibitors of SNCA 5'UTR-driven reporter translation, confirmation, H4 neuroglioma cells, luminescence (AID 1988); format: functional, cell-based
# [8] = C. albicans growth with fluconazole, confirmation, fluorescence, retest (AID 2467); format: functional, cell-based
# [9] = cells; format: functional, cell-based; remark: listed apart in the source
# [10] = Luminescence Cell-Based Dose Retest to Confirm Inhibitors of Cancer Stem Cells. [Related pubchem assays (depositor defined):AID2717, AID2721]; format: functional; details: Homo sapiens
# [11] = biological target: Nonstructural protein 1 (Influenza A virus, UniProt Q194T2); format: functional, Influenza A virus (A/California/07/2009(H1N1))
# [12] = test system: HEK293; assay: inhibitors of LMP1-driven NF-kB reporter, dose response, cell-based, HEK293, luciferase, cherry-pick (AID 588343); format: functional; details: Homo sapiens
# [13] = test system: INS1; assay: beta cell apoptosis inhibitors, cytokine rescue, dose response, luminescence, retest (AID 449756); format: functional, cell-based; details: Rattus norvegicus;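 also: cell death triggered by IL-1 beta plus TNF-alpha plus IFN-gamma mixture; protective hits raise ATP signal compared with cytokine alone wells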
# [14] = Vero cell cytotoxicity, dose response, cytotoxicity control for Vif-APOBEC3G degradation inhibitor project, Vero cells (AID 1117358); format: functional; details: Human immunodeficiency virus 1, Vero
# [15] = HEp-2 cell cytotoxicity, dose response, cytotoxicity control for RSV inhibitor project, HTS (AID 2410); format: functional; details: human respiratory syncytial virus
# [16] = inhibitors of HIV Env-driven cell fusion, dose response, cherry-pick (AID 652057); format: functional, cell-based
# [17] = ZM109 Env clade C HIV-1 fusion inhibitors, dose response, HeLa effector, CEM target cells, luciferase, cherry-pick (AID 652058); format: functional, cell-based
# [18] = off-target signal loss in HeLa-CEM21 co-culture – HeLa F-luc CTL cells, cherry-picked, counter-screen for HIV-1 Env fusion inhibitor project, dose response (AID 652040); format: functional, cell-based;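 also: potency for signal decrease marking cytotoxic or nonspecific inhibition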
# [19] = inhibitors of clade B AD8 Env fusion, dose response, cell-based, cherry-pick (AID 652062); format: functional;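 also: luciferase signal from cell-cell fusion driven by HIV-1 clade B AD8 Env; potency is for inhibitors of fusion seen as a drop in luminescence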
# [20] = cells
# [21] = biological target: Mitogen-activated protein kinase 10 (Homo sapiens, UniProt P53779); assay: Dose response biochemical screening assay for inhibitors of c-Jun N-Terminal Kinase 3 (JNK3). [Related pubchem assays: 746 ]
# [22] = biological target: FAD-linked sulfhydryl oxidase ALR (Homo sapiens, UniProt P55789); assay: inhibitors of human ALR sulfhydryl oxidase, dose response, biochemical, H2O2 detection, luminescence, cherry-pick (AID 493248)
# [23] = biological target: Mucolipin-3 (Homo sapiens, UniProt Q8TDD5); assay: Dose response cell-based high-throughput screening assay for agonists of the transient receptor potential channel ML3 (TRPML3). [Related pubchem assays: 1526, 1424, 1448 ]; format: functional
# [24] = biological target: Ion channel NompC (Danio rerio, UniProt Q7T1G6); assay: Fluorescence counterscreen assay for TRPML3 agonists: dose response cell-based high-throughput screening assay to identify agonists of the transient receptor potential channel N1 (TRPN1). [Related pubchem assays: 1526, 1424, 1448 ]; format: functional
# [25] = biological target: Voltage-gated inwardly rectifying potassium channel KCNH2 (Homo sapiens, UniProt Q12809); assay: hERG protection from proarrhythmic block, potency, dose response, cell-based, thallium flux (AID 2121); format: ADME
# [26] = test system: HEK293; assay: NOD1 signaling inhibitors, primary screen, cell-based, luminescence, uHTS (AID 1578); format: functional; details: Homo sapiens
# [27] = test system: BJ; assay: cytotoxicity toward BJ-TERT fibroblasts, dose response, cell-based, RAS-independent, luminescence (AID 1933); format: functional; details: Homo sapiens
# [28] = test system: HEK293; assay: cells; format: functional, cell-based; details: Homo sapiens
# [29] = test system: BJ; assay: cells; format: functional, cell-based; details: Homo sapiens
# [30] = test system: HEK293; assay: cells; format: functional, cell-based; details: Homo sapiens; remark: listed apart in the source
# [31] = biological target: Nucleotide-binding oligomerization domain-containing protein 2 (Homo sapiens, UniProt Q9HC29); assay: NOD2 signaling inhibitors, cell-based, luminescence, uHTS, HEK293 (AID 1566); format: functional
# [32] = test system: HEK293; assay: NOD2 signaling inhibitors in MDP-stimulated cells, cell-based, uHTS, luminescence (AID 2001); format: functional; details: Homo sapiens
# [33] = test system: HEK293; assay: cells; format: functional, cell-based; details: Homo sapiens; remark: listed apart in the source
# [34] = biological target: T2, Serine/threonine-protein phosphatase (Candida dubliniensis (strain CD36 / CBS 7987 / NCPF 3949 / NRRLY-17841) (Yeast), UniProt B9W6M3); assay: calcineurin pathway inhibitors in yeast reporter, dose response, S. cerevisiae, CDRE-lacZ, luminescence, secondary (AID 2388); format: functional, cell-based;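 also: yeast reporter cells carrying a calcineurin-responsive lacZ construct stimulated with calcium chloride; luminescent beta-galactosidase reporter signal in whole cells rather than isolated phosphatase activity; potency for inhibition where a drop in reporter signal means calcineurin blockade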
# T2 sequence (B9W6M3 whole entry): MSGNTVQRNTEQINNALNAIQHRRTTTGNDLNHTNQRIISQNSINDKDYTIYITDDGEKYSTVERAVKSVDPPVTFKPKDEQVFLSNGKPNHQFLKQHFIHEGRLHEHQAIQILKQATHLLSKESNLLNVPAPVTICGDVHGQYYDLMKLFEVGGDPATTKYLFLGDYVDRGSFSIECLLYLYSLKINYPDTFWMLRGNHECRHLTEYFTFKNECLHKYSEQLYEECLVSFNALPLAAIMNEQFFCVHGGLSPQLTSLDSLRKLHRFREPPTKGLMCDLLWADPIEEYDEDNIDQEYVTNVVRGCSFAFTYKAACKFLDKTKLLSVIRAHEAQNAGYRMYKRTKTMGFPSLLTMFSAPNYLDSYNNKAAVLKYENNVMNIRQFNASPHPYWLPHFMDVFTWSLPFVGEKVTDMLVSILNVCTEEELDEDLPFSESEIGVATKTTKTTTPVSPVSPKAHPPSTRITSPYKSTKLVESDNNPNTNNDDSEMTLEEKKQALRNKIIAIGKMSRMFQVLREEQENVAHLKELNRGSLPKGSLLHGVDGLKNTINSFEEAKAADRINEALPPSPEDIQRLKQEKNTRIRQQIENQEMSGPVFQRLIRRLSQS
# [35] = test system: BJ; assay: cytotoxicity toward BJ-TERT-LT-ST fibroblasts, dose response, cell-based, RAS-independent, luminescence (AID 1935); format: functional; details: Homo sapiens;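 also: BJ fibroblasts immortalized with TERT plus LT and ST oncogenes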
# [36] = cytotoxicity toward DRD oncogenic fibroblasts, dose response, cell-based, non-viral oncogenic, luminescence (AID 1934); format: functional; details: Homo sapiens
# [37] = biological target: Heat shock protein HSP 90-alpha (Homo sapiens, UniProt P07900); format: functional, organism-based
# [38] = test system: Vero; assay: cells; format: functional, cell-based; details: Chlorocebus sabaeus
# [39] = test system: BJ; assay: cytotoxicity toward Ras-transformed BJeLR fibroblasts, dose response, cell-based, alamar blue fluorescence, cherrypicked samples (AID 2631); format: functional; details: Homo sapiens;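 also: confirmatory dose-response assay in RAS-dependent BJ fibroblasts engineered with TERT, LT and ST, with cytotoxicity read by fluorescence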
# [40] = test system: Vero; assay: cells; format: functional; details: Chlorocebus sabaeus
# [41] = biological target: ATP-dependent molecular chaperone HSP82 (Candida albicans (strain WO-1) (Yeast), UniProt C4YTQ8); assay: loss of DOC-induced GRE-beta-galactosidase reporter signal, dose response, Hsp90 inhibitor project, S. cerevisiae, luminescence (AID 2400); format: functional, cell-based;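 also: beta-galactosidase luminescence from glucocorticoid response element reporter as proxy for Hsp90 function; inhibitor potency where signal loss means Hsp90 inhibition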
# [42] = biological target: Peroxisome proliferator-activated receptor gamma/Nuclear receptor coactivator 2 (Homo sapiens, UniProt P37231); format: functional;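 also: agonist potency for raising coactivator recruitment to the receptor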
# [43] = biological target: Peroxisome proliferator-activated receptor gamma/Nuclear receptor coactivator 1 (Homo sapiens, UniProt P37231); format: functional;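 also: agonist potency as compounds enhance coactivator SRC-1 recruitment to PPARgamma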
# [44] = biological target: Peroxisome proliferator-activated receptor gamma/Nuclear receptor coactivator 3 (Homo sapiens, UniProt P37231); format: functional;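 also: agonist potency for raising coactivator recruitment to the receptor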
# [45] = inhibitors of intracellular T. cruzi replication, confirmation, NIH3T3 host cells, beta-gal luminescence (AID 2044); format: functional, cell-based;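 also: intracellular parasites grown in NIH/3T3 mouse fibroblasts as host cells; luminescent beta-galactosidase reporter signal from transgenic T. cruzi replicating inside host cells; inhibitors lower the luminescence signal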
# [46] = cytotoxicity toward NIH3T3 fibroblasts, dose response, counter-screen, cell-based, ATP luminescence, mouse fibroblasts (AID 2010); format: functional;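 also: cells exposed to compound for about 90 hours before reading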
# [47] = biological target: Ephrin type-A receptor 4 (Mus musculus, UniProt Q03137); assay: inhibitors of EphA4 binding to KYL peptide, primary screen, biochemical, colorimetric, mouse EphA4 (AID 689); format: functional
# Chain of Ephrin type-A receptor 4 (Q03137 whole entry): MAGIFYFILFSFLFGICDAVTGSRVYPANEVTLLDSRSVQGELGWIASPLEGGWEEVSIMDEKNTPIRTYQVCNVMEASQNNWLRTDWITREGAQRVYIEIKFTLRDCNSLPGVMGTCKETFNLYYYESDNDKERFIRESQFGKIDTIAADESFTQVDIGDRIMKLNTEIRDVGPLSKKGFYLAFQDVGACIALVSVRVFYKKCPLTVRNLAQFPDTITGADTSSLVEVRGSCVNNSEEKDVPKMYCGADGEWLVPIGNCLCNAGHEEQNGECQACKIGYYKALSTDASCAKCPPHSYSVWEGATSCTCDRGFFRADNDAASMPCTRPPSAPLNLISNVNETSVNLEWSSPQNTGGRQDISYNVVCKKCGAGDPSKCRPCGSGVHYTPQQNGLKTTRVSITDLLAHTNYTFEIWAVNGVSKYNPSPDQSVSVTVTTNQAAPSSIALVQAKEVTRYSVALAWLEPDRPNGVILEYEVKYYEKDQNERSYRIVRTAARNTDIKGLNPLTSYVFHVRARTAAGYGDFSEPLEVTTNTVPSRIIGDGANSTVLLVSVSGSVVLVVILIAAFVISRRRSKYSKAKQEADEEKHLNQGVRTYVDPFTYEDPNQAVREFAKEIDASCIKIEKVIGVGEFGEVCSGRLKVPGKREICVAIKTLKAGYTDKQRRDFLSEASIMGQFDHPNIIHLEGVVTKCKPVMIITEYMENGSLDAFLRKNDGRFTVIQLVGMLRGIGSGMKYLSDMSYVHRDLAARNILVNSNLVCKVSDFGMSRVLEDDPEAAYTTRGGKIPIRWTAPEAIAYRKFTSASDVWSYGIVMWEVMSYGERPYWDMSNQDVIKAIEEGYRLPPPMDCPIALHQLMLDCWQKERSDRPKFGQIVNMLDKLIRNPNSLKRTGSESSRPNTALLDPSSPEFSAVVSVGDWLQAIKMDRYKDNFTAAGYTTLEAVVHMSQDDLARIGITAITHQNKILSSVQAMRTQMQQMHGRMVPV
# Chain of Ion channel NompC (Q7T1G6 whole entry): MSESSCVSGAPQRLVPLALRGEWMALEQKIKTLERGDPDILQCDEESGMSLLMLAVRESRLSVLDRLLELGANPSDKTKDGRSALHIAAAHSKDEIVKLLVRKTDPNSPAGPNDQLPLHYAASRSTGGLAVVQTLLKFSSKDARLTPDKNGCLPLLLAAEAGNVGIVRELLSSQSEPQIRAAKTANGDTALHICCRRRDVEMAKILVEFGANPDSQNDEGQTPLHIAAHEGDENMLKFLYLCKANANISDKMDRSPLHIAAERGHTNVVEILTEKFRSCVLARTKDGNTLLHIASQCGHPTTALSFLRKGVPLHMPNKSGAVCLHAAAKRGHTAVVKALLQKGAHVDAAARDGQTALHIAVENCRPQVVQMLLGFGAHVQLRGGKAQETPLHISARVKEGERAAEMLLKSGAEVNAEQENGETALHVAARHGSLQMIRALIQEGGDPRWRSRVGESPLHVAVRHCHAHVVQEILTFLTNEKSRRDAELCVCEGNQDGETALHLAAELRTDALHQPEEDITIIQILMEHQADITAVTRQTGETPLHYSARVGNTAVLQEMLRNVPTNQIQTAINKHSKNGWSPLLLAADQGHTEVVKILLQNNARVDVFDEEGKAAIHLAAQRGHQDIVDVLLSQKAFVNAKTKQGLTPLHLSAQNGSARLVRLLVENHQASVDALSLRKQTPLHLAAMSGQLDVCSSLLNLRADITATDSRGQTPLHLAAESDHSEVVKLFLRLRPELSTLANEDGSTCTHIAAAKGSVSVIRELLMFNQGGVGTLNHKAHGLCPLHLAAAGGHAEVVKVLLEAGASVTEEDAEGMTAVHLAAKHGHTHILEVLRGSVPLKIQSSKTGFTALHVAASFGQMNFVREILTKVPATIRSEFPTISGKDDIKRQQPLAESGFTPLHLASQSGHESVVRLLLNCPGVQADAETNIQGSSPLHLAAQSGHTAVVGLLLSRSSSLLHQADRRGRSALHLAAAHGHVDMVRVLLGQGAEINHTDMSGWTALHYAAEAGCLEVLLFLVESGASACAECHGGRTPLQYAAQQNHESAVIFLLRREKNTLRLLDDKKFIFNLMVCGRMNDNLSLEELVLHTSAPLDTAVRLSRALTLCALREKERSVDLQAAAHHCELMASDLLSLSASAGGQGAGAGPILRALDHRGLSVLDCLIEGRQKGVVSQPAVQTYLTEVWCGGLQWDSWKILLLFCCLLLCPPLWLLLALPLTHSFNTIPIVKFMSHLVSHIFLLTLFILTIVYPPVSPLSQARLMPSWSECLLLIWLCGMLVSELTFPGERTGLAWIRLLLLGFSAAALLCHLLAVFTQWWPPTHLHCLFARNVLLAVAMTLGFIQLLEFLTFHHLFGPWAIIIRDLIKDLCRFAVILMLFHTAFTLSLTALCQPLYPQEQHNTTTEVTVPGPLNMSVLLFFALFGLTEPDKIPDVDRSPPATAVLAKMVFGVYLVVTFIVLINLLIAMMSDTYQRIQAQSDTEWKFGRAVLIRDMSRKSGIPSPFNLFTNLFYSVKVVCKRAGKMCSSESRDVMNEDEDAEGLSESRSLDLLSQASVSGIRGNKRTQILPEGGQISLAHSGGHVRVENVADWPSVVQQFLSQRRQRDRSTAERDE
# Chain of Mucolipin-3 (Q8TDD5 whole entry): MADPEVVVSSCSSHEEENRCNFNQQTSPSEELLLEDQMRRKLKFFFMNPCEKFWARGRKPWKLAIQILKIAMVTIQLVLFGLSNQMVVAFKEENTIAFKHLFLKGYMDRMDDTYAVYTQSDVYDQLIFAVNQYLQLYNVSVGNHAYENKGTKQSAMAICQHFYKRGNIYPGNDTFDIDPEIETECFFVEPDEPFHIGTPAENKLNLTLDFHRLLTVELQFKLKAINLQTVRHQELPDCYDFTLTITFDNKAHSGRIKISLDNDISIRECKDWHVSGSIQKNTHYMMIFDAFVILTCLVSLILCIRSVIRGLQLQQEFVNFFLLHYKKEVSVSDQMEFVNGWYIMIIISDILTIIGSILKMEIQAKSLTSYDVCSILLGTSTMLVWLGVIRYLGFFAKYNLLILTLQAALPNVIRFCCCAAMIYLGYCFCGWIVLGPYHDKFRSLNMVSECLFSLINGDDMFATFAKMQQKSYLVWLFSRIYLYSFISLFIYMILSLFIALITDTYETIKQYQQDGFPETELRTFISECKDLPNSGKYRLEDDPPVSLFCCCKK
# Chain of Voltage-gated inwardly rectifying potassium channel KCNH2 (Q12809 whole entry): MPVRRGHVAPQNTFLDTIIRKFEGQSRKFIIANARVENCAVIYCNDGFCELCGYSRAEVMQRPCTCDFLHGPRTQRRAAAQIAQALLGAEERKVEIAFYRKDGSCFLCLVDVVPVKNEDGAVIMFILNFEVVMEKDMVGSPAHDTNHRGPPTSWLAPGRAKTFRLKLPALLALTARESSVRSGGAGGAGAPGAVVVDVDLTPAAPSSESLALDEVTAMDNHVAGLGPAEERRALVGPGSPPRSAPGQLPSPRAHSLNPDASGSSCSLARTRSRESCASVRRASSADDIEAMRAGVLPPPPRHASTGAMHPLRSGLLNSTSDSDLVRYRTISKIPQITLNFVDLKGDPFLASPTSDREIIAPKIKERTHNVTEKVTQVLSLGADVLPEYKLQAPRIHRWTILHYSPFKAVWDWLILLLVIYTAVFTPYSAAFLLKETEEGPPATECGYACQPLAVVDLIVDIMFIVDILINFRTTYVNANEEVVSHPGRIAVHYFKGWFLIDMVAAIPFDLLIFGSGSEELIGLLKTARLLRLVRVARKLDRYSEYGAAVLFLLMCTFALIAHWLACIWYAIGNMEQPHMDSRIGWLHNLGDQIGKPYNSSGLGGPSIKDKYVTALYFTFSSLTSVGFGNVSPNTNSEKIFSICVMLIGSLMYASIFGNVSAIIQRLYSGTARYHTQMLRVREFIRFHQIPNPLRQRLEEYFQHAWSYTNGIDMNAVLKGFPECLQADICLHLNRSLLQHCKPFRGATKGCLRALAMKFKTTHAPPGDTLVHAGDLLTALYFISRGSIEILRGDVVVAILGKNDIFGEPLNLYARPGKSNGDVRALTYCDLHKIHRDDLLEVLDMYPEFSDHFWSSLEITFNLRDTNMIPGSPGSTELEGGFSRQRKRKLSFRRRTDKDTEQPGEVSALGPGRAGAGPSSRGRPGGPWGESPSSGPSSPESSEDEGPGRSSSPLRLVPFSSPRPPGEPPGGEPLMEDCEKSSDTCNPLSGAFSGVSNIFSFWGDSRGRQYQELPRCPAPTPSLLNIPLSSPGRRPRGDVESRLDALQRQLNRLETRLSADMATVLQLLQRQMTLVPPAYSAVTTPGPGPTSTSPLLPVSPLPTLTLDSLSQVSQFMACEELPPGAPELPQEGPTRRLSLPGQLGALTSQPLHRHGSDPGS
# Chain of FAD-linked sulfhydryl oxidase ALR (P55789 whole entry): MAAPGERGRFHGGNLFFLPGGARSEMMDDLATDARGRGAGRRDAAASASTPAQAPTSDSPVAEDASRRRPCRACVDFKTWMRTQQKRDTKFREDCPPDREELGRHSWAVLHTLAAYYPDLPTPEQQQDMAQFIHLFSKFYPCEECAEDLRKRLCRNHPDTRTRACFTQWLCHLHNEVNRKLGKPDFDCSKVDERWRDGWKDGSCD
# Chain of Cytochrome P450 2C19 (P33261 whole entry): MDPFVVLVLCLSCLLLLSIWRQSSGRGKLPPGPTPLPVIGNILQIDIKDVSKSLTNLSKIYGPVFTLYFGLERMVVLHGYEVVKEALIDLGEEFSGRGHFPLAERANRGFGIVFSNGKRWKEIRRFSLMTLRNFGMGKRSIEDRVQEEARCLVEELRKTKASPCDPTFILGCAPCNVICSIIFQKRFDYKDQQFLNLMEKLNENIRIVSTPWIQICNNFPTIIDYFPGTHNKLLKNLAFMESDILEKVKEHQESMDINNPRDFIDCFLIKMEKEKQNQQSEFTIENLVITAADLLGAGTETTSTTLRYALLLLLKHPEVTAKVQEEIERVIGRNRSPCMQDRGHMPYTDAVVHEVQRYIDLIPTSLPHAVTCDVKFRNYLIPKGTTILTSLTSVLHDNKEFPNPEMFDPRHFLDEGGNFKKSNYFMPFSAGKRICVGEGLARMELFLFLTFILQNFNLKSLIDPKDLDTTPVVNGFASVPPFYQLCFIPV
smiles,measurement,setting,value
O=C(O)c1cccc(N/N=C/c2cccnc2)c1,IC50,[1],> 50 µM (not active)
O=c1cc(-c2ccc(O)c(O)c2)oc2cccc(O)c12,AC50,[2],15.8 µM (inconclusive)
Oc1ccccc1/C=N/Nc1nccnc1Cl,EC50,[3],38.5 µM (active)
same,EC50,[4],9.08 µM (active)
same,EC50,[5],9.82 µM (active)
same,EC50,[6],9.43 µM (active)
same,EC50,[7],4.65 µM (active)
same,EC50,[8],1.06 µM (active)
same,EC50,[9],7.95 µM (active)
same,AC50,[10],6.46 µM (active)
same,IC50,[11],15.9 µM (active)
same,AC50,[12],14.9 µM (active)
same,AC50,[13],0.747 µM (active)
same,CC50,[14],8.61 µM (active)
O=C(NCc1ccco1)c1ccc(Cn2c(=O)c3ccccc3n(Cc3ccc(Cl)cc3)c2=O)cc1,CC50,[15],> 50 µM (active)
same,AC50,[16],0.669 µM (active)
same,AC50,[17],1.48 µM (active)
same,AC50,[18],0.421 µM (active)
same,AC50,[19],5.95 µM (active)
same,IC50,[20],0.58 µM (active)
c1ccc(Nc2ccccc2Nc2ccccn2)nc1,IC50,[21],18.4 µM (not active)
same,AC50,[22],0.773 µM (active)
CCOc1ccc2c(c1)C(C)=CC(C)(C)N2C(=O)Nc1ccccc1,IC50,[1],> 50 µM (not active)
CCN(CC(=O)Nc1cc(Cl)ccc1C)C(=O)CSCc1ccc(C)cc1,CC50,[15],24.5 µM (active)
same,IC50,[20],22.8 µM (active)
COc1cc(C)ccc1S(=O)(=O)N1CCCCCC1,EC50,[23],2.84 µM (active)
same,EC50,[24],> 29.9 µM (not active)
CC(C)c1ccc(/C=N/n2c(S)nnc2COc2ccccc2)cc1,EC50,[25],7.6 µM (active)
Cc1ccc(S(=O)(=O)N2CC3CCCC2C3)cc1 (stereo not given),EC50,[23],3.78 µM (active)
same,EC50,[24],> 29.9 µM (not active)
COc1cccc(N=Nc2ccc(O)c3ncccc23)c1,EC50,[3],> 160 µM (inactive)
same,EC50,[26],3.74 µM (active)
same,EC50,[27],7.7 µM (inconclusive)
same,IC50,[28],3.04 µM (active)
same,EC50,[29],2.8 µM (inconclusive)
same,EC50,[8],0.79 µM (active)
same,IC50,[30],> 20 µM (inactive)
same,EC50,[31],> 20 µM (inactive)
same,IC50,[32],3.4 µM (inactive)
same,IC50,[33],> 20 µM (inactive)
same,EC50,[34],> 180 µM (inactive)
same,EC50,[25],2.99 µM (active)
same,EC50,[35],8.08 µM (inconclusive)
same,EC50,[36],12.7 µM (inconclusive)
same,AC50,[12],3.6 µM (active)
same,AC50,[37],4.01 µM (active)
same,IC50,[38],> 25 µM (active)
same,EC50,[39],1.05 µM (active)
same,AC50,[13],2.1 µM (active)
same,CC50,[40],6.41 µM (active)
same,EC50,[41],13.6 µM (active)
CC(=O)Nc1c(O)nc(SCC(=O)Nc2ccc(C(C)=O)cc2)[nH]c1=O,EC50,[42],> 79.4 µM (not active)
same,EC50,[43],> 79.4 µM (not active)
same,EC50,[44],> 79.4 µM (not active)
Cc1ccc(C)c(N(CC(=O)N/N=C/c2ccc(-c3ccc([N+](=O)[O-])cc3)o2)S(=O)(=O)c2ccccc2)c1,EC50,[45],1.65 µM (active)
same,EC50,[46],> 30 µM (not active)
same,IC50,[47],> 100 µM (not active)
COc1cnn(-c2ccccc2)c(=O)c1N(C)C,EC50,[42],> 79.4 µM (not active)
same,EC50,[43],> 79.4 µM (not active)
same,EC50,[44],> 79.4 µM (not active)
